Data from US20220143222A1, “SUBCUTANEOUS AND INTRAMUSCULAR ADMINISTRATION OF PYRAZINE COMPOUNDS” (MediBeacon Inc., priority 2020, published 2022).

How the values were obtained:
[1] = MB-102 pig plasma concentration after IV dosing; assay type: in vivo; conditions: pig 48019, IV, 3.2 mpk
Excerpt: (§1) Juvenile Yorkshire pigs weighing approximately 25 kg were anesthetized, their body temperature stabilized, and an IV port surgically placed. A region approximately half-way along the line between the hip and knee joint was selected as the injection site and prepared by cleaning the skin and removing any exposed hair by shaving the selected area at least twice. Similarly, the site where two Quantum Leap fluorescent sensors (disclosed in U.S. Pat. No. 10,548,521) were to be positioned (chest) was prepared by washing and shaving. After the skin was dry the sensors were attached with commercially available skin adhesive and background skin auto-fluorescence measurements were recorded. After about 20 minutes of background fluorescence collection the subject animal was dosed either intravenously (animal 48019) or subcutaneously (animals 52771, 53701 09802, or 1539) or intramuscularly (09801) with PBS-1× formulated MB-102 at 3.2 mg/kg. Injection of the appropriate volume took place over about a minute. […] At this point glomerular elimination of MB-102 by the kidneys led to a decrease of fluorescence signal over time. Blood samples (1.5 mL) were taken immediately prior to the introduction of MB-102 (0 minutes) and at 15 minute intervals throughout the procedure. Blood was collected in BD vacutainer K2EDTA tubes, spun to plasma and stored at −80° C. until analyzed. Subsequently, the processed plasma samples were thawed, diluted with PBS-1× and analyzed by HPLC or UPLC and the concentration of MB-102 determined using standard analytical techniques. Further details for each animal are provided in the examples that follow.
Subject pig, 48019, the control animal, was prepared as in Example 6 and dosed IV using 8.2 mL of 11.8 mg/mL MB-102 in PBS-1× (bolus over about 2 min).

[2] = MB-102 pig plasma concentration after intramuscular dosing; assay type: in vivo; conditions: pig 09801, IM, 3.2 mpk
Excerpt: as §1
(§2) Experimental animal Yorkshire pig, 09801, was subject to Intramuscular (IM) administration of MB-102 using substantially the same procedure as Example 8, but substituting a 2 mL syringe equipped with a single 13 mm×27 g needle. […] Blood sampling and processing was as described in Example 8 and the results (Table 1) are plotted in FIG. 6.

[3] = Transdermal fluorescence signal at the chest after injection; assay type: in vivo, pig
Excerpt: as §1
A sterile Mesoderm needle pack was obtained. The needle array featured five (5), 4 mm×30 gauge (0.30 mm dia) luer-hub needles arranged four (4) in a circular, symmetrical pattern (30 mm diameter) about a central needle and were attached via a distribution channel and a second luer-hub to a primary source syringe (3 mL in total deliverable volume). MB-102 API was formulated as 60 mg/mL of sodium salt in 1×PBS and placed in 5 mL serum cap vials. Immediately prior to dosing, the primary syringe was filled with a slight excess of the required amount of formulated MB-102 to achieve 3.2 mg/kg and the needle cap replaced until the subject animal and fluorescence monitor were ready for the experiment to begin and the injection initiated. Subject pig 52771 was dosed with 1.2 mL of MB-102 formulated in PBS-1× (3.2 mg/kg). […] Subject animal fluorescence was obtained during the entire course of the experiment (8 hrs) and blood samples were collected every 15 minutes, processed and stored at −80° C. Comparison of IV MB-102 plasma concentration versus time and subcutaneous MB-102 (both at 3.2 mg/kg dose) plasma concentration versus time are shown in FIG. 1.
Experimental animal Yorkshire pig, 53701, was subject to subcutaneous (subQ) administration of MB-102 as described in Example 8. […] Plasma sampling was conducted as described in Example 8 and the results (Table 1) are plotted in FIG. 1.
Experimental animal Yorkshire pig, 09802, was subject to subcutaneous (subQ) administration of MB-102 using a single needle in the same protocol as Example 8 but substituting a 2 mL syringe equipped with a single 4 mm×30 g needle. […] Plasma sampling was conducted as described in Example 8 and the results (Table 1) are plotted in FIG. 1.
as §2
Experimental animal Yorkshire pig, 1539, was subject to subcutaneous (subQ) administration of MB-102 using a single needle in the same protocol as Example 10. […]

- concentration at 15 min ([1]; Yorkshire, plasma, 3.2 mg/kg, 15 min, read-out: MB-102 Pig Plasma Conc.): 13000 ng/mL
- concentration at 30 min ([1]; Yorkshire, plasma, 3.2 mg/kg, 30 min, read-out: MB-102 Pig Plasma Conc.): 9200 ng/mL
- concentration at 45 min ([1]; Yorkshire, plasma, 3.2 mg/kg, 45 min, read-out: MB-102 Pig Plasma Conc.): 7830 ng/mL
- concentration at 60 min ([1]; Yorkshire, plasma, 3.2 mg/kg, 60 min, read-out: MB-102 Pig Plasma Conc.): 5880 ng/mL
- concentration at 75 min ([1]; Yorkshire, plasma, 3.2 mg/kg, 75 min, read-out: MB-102 Pig Plasma Conc.): 5430 ng/mL
- concentration at 90 min ([1]; Yorkshire, plasma, 3.2 mg/kg, 90 min, read-out: MB-102 Pig Plasma Conc.): 4680 ng/mL
- concentration at 105 min ([1]; Yorkshire, plasma, 3.2 mg/kg, 105 min, read-out: MB-102 Pig Plasma Conc.): 4000 ng/mL
- concentration at 120 min ([1]; Yorkshire, plasma, 3.2 mg/kg, 120 min, read-out: MB-102 Pig Plasma Conc.): 3340 ng/mL
- concentration at 135 min ([1]; Yorkshire, plasma, 3.2 mg/kg, 135 min, read-out: MB-102 Pig Plasma Conc.): 3250 ng/mL
- concentration at 150 min ([1]; Yorkshire, plasma, 3.2 mg/kg, 150 min, read-out: MB-102 Pig Plasma Conc.): 2700 ng/mL
- concentration at 165 min ([1]; Yorkshire, plasma, 3.2 mg/kg, 165 min, read-out: MB-102 Pig Plasma Conc.): 2410 ng/mL
- concentration at 180 min ([1]; Yorkshire, plasma, 3.2 mg/kg, 180 min, read-out: MB-102 Pig Plasma Conc.): 2200 ng/mL
- concentration at 195 min ([1]; Yorkshire, plasma, 3.2 mg/kg, 195 min, read-out: MB-102 Pig Plasma Conc.): 2000 ng/mL
- concentration at 210 min ([1]; Yorkshire, plasma, 3.2 mg/kg, 210 min, read-out: MB-102 Pig Plasma Conc.): 1910 ng/mL
- concentration at 225 min ([1]; Yorkshire, plasma, 3.2 mg/kg, 225 min, read-out: MB-102 Pig Plasma Conc.): 1690 ng/mL
- concentration at 240 min ([1]; Yorkshire, plasma, 3.2 mg/kg, 240 min, read-out: MB-102 Pig Plasma Conc.): 1510 ng/mL
- concentration at 255 min ([1]; Yorkshire, plasma, 3.2 mg/kg, 255 min, read-out: MB-102 Pig Plasma Conc.): 1400 ng/mL
- concentration at 270 min ([1]; Yorkshire, plasma, 3.2 mg/kg, 270 min, read-out: MB-102 Pig Plasma Conc.): 1320 ng/mL
- concentration at 285 min ([1]; Yorkshire, plasma, 3.2 mg/kg, 285 min, read-out: MB-102 Pig Plasma Conc.): 1140 ng/mL
- concentration at 300 min ([1]; Yorkshire, plasma, 3.2 mg/kg, 300 min, read-out: MB-102 Pig Plasma Conc.): 1110 ng/mL
- concentration at 315 min ([1]; Yorkshire, plasma, 3.2 mg/kg, 315 min, read-out: MB-102 Pig Plasma Conc.): 1000 ng/mL
- concentration at 330 min ([1]; Yorkshire, plasma, 3.2 mg/kg, 330 min, read-out: MB-102 Pig Plasma Conc.): 917 ng/mL
- concentration at 345 min ([1]; Yorkshire, plasma, 3.2 mg/kg, 345 min, read-out: MB-102 Pig Plasma Conc.): 859 ng/mL
- concentration at 360 min ([1]; Yorkshire, plasma, 3.2 mg/kg, 360 min, read-out: MB-102 Pig Plasma Conc.): 819 ng/mL
- SUM (plasma conc. over time) ([1]; 15-360 min): 1,188,637 ng/mL*min
- concentration at 15 min ([2]; Yorkshire, plasma, intramuscular, 3.2 mg/kg, 15 min, read-out: MB-102 Pig Plasma Conc.): 10000 ng/mL
- concentration at 30 min ([2]; Yorkshire, plasma, intramuscular, 3.2 mg/kg, 30 min, read-out: MB-102 Pig Plasma Conc.): 8130 ng/mL
- concentration at 45 min ([2]; Yorkshire, plasma, intramuscular, 3.2 mg/kg, 45 min, read-out: MB-102 Pig Plasma Conc.): 6240 ng/mL
- concentration at 60 min ([2]; Yorkshire, plasma, intramuscular, 3.2 mg/kg, 60 min, read-out: MB-102 Pig Plasma Conc.): 5030 ng/mL
- concentration at 75 min ([2]; Yorkshire, plasma, intramuscular, 3.2 mg/kg, 75 min, read-out: MB-102 Pig Plasma Conc.): 3920 ng/mL
- concentration at 90 min ([2]; Yorkshire, plasma, intramuscular, 3.2 mg/kg, 90 min, read-out: MB-102 Pig Plasma Conc.): 3370 ng/mL
- concentration at 105 min ([2]; Yorkshire, plasma, intramuscular, 3.2 mg/kg, 105 min, read-out: MB-102 Pig Plasma Conc.): 2720 ng/mL
- concentration at 120 min ([2]; Yorkshire, plasma, intramuscular, 3.2 mg/kg, 120 min, read-out: MB-102 Pig Plasma Conc.): 2130 ng/mL
- concentration at 135 min ([2]; Yorkshire, plasma, intramuscular, 3.2 mg/kg, 135 min, read-out: MB-102 Pig Plasma Conc.): 1800 ng/mL
- concentration at 150 min ([2]; Yorkshire, plasma, intramuscular, 3.2 mg/kg, 150 min, read-out: MB-102 Pig Plasma Conc.): 1510 ng/mL
- concentration at 165 min ([2]; Yorkshire, plasma, intramuscular, 3.2 mg/kg, 165 min, read-out: MB-102 Pig Plasma Conc.): 1340 ng/mL
- concentration at 180 min ([2]; Yorkshire, plasma, intramuscular, 3.2 mg/kg, 180 min, read-out: MB-102 Pig Plasma Conc.): 1110 ng/mL
- concentration at 195 min ([2]; Yorkshire, plasma, intramuscular, 3.2 mg/kg, 195 min, read-out: MB-102 Pig Plasma Conc.): 946 ng/mL
- concentration at 210 min ([2]; Yorkshire, plasma, intramuscular, 3.2 mg/kg, 210 min, read-out: MB-102 Pig Plasma Conc.): 841 ng/mL
- concentration at 225 min ([2]; Yorkshire, plasma, intramuscular, 3.2 mg/kg, 225 min, read-out: MB-102 Pig Plasma Conc.): 686 ng/mL
- concentration at 240 min ([2]; Yorkshire, plasma, intramuscular, 3.2 mg/kg, 240 min, read-out: MB-102 Pig Plasma Conc.): 578 ng/mL
- concentration at 255 min ([2]; Yorkshire, plasma, intramuscular, 3.2 mg/kg, 255 min, read-out: MB-102 Pig Plasma Conc.): 520 ng/mL
- concentration at 270 min ([2]; Yorkshire, plasma, intramuscular, 3.2 mg/kg, 270 min, read-out: MB-102 Pig Plasma Conc.): 434 ng/mL
- concentration at 285 min ([2]; Yorkshire, plasma, intramuscular, 3.2 mg/kg, 285 min, read-out: MB-102 Pig Plasma Conc.): 373 ng/mL
- concentration at 300 min ([2]; Yorkshire, plasma, intramuscular, 3.2 mg/kg, 300 min, read-out: MB-102 Pig Plasma Conc.): 333 ng/mL
- concentration at 315 min ([2]; Yorkshire, plasma, intramuscular, 3.2 mg/kg, 315 min, read-out: MB-102 Pig Plasma Conc.): 298 ng/mL
- concentration at 330 min ([2]; Yorkshire, plasma, intramuscular, 3.2 mg/kg, 330 min, read-out: MB-102 Pig Plasma Conc.): 261 ng/mL
- concentration at 345 min ([2]; Yorkshire, plasma, intramuscular, 3.2 mg/kg, 345 min, read-out: MB-102 Pig Plasma Conc.): 222 ng/mL
- concentration at 360 min ([2]; Yorkshire, plasma, intramuscular, 3.2 mg/kg, 360 min, read-out: MB-102 Pig Plasma Conc.): 203 ng/mL
- SUM (plasma conc. over time) ([2]; 15-360 min): 794,162 ng/mL*min
- time until fluorescence signal first observed ([3]; pig 1539, single needle subcutaneous): after a few minutes
- time until fluorescence signal first observed ([3]; pig 09801, single needle intramuscular): after a few minutes
- time until fluorescence signal first observed ([3]; pig 09802, single needle subcutaneous): after a few minutes
- time until transdermal fluorescent signal detectable ([3]; pig 52771, multi-needle subcutaneous, 3.2 mg/kg): Within a few minutes
- time until fluorescence signal first observed ([3]; pig 53701, multi-needle subcutaneous): after a few minutes
- time until fluorescent skin signal at the chest observed ([3]; pigs, 3.2 mg/kg IV, subcutaneous or intramuscular, typical): within several minutes post injection
SMILES: Nc1nc(C(=O)N[C@H](CO)C(=O)O)c(N)nc1C(=O)N[C@H](CO)C(=O)O [MB-102, 3,6-diamino-2,5-bis{N-[(1R)-1-carboxy-2-hydroxyethyl]carbamoyl}pyrazine]
